The values below come from ChEMBL document CHEMBL5370624 (J Med Chem, 2023).

Each structure is given as a SMILES string. The source made the active and inactive calls. No cut-off for these calls is given here.

Data set [1] has as its target T1, Toll-like receptor 4 (Homo sapiens, UniProt O00206). The experiment in a line: Agonist activity at human TLR4 in human HEK-Blue hTLR4 cells assessed as NF-kappaB activation incubated for 48 hrs by SEAP reporter gene based Quanti-blue assay. The format is cell-based. (Reporter assays use an easily measured gene product as a stand-in for the process of interest.)

The target in data set [2] is T2, Toll-like receptor 4 (Mus musculus, UniProt Q9QUK6).
T2 sequence (Q9QUK6 whole entry): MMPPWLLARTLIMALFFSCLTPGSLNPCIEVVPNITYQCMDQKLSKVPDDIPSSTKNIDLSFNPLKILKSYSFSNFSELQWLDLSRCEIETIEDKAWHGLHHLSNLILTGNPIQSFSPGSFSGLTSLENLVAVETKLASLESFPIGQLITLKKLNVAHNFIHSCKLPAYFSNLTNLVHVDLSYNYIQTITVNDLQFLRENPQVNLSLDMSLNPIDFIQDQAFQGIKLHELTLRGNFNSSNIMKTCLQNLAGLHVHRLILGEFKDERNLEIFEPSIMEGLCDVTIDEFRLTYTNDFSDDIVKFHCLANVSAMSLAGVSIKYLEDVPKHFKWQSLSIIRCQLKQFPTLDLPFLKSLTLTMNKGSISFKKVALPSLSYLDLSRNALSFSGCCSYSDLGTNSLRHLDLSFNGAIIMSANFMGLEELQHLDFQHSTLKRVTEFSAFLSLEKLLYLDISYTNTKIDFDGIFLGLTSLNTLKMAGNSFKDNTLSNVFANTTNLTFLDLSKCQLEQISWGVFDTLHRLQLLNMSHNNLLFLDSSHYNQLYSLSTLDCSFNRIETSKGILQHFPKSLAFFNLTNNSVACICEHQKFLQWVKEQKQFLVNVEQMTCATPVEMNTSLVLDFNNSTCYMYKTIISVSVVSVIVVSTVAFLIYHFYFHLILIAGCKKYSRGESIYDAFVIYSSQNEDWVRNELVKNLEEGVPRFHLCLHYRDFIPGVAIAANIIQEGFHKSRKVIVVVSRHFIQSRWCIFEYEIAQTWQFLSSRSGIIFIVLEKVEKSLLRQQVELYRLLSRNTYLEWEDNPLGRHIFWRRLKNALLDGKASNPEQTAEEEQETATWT
Put plainly: Agonist activity at TLR4 in mouse RAW264.7 cells assessed as induction of MIP-1beta release incubated for 24 hrs by ELISA. The format is cell-based.

A short description of data set [3]: Aqueous stability of the compound assessed as drug degradation at 40 degreeC and measured after 3 months by LC-MS analysis. The format is physicochemical. The settings on record: buffer, 2190 h.
The target in data set [4] is T2, Toll-like receptor 4. Put plainly: Agonist activity at mouse TLR4 in human HEK-Blue mTLR4 cells assessed as NF-kappaB activation incubated for 48 hrs by SEAP reporter gene based Quanti-blue assay. The format is cell-based.
Data set [5] has as its target T1, Toll-like receptor 4. Put plainly: Agonist activity at TLR4 in human MONO-MAC-6 cells assessed as induction of MIP-1beta release incubated for 24 hrs by ELISA. Format: cell-based. For orientation: An ELISA detects its analyte on a solid surface through an enzyme-linked reagent.
Data set [6] concerns the target T1, Toll-like receptor 4. The experiment in a line: Agonist activity at TLR4 in human PBMC cells assessed as induction of MIP-1beta release incubated for 20 hrs by ELISA. Format: cell-based.
The target of data set [7] is T1, Toll-like receptor 4. Put plainly: Agonist activity at TLR4 in human PBMC cells assessed as induction of TNFalpha release incubated for 20 hrs by ELISA. The format is cell-based.
Data set [8] has as its target T1, Toll-like receptor 4. The experiment in a line: Agonist activity at TLR4 in human PBMC cells assessed as induction of IL-1beta release incubated for 20 hrs by ELISA. The format is cell-based.
In data set [9] the target is T1, Toll-like receptor 4. The experiment in a line: Agonist activity at TLR4 in human PBMC cells assessed as induction of RANTES release incubated for 20 hrs by ELISA. The format is cell-based.
The species named for data set [10] is Mus musculus. The experiment in a line: Immuno-adjuvant activity in H3N2-split A/Victoria/210/2009 influenza virus-immunized BALB/c mouse model assessed as increase in influenza specific serum IgG titer level at 0.001 to 0.1 ug,IM and measured after 14 days by ELISA. The format is functional, organism-based. The settings on record: dose 0.001-0.1 µg, time 14.0 day.

The species named for data set [11] is Mus musculus. The experiment in a line: Immuno-adjuvant activity in H3N2-split A/Victoria/210/2009 influenza virus-immunized BALB/c mouse model assessed as increase in influenza specific serum IgG1 titer level at 0.001 to 0.1 ug,IM and measured after 14 days by ELISA. The format is functional, organism-based. The settings on record: dose 0.001-0.1 µg, time 14.0 day.

The test system of data set [12] is Mus musculus. Put plainly: Immuno-adjuvant activity in H3N2-split A/Victoria/210/2009 influenza virus-immunized BALB/c mouse model assessed as increase in influenza specific serum IgG titer level at 0.001 to 0.1 ug,IM administered on day 0 and 14 and measured after 28 days by ELISA. The format is functional, organism-based. The settings on record: dose 0.001-0.1 µg, time 28.0 day.

For data set [13], the system named is Mus musculus. The experiment in a line: Immuno-adjuvant activity in H3N2-split A/Victoria/210/2009 influenza virus-immunized BALB/c mouse model assessed as increase in influenza specific serum IgG1 titer level at 0.001 to 0.1 ug,IM administered on day 0 and 14 and measured after 28 days by ELISA. The format is functional, organism-based. The settings on record: dose 0.001-0.1 µg, time 28.0 day.

Data set [14] deals with Mus musculus. The experiment in a line: Immuno-adjuvant activity in H3N2-split A/Victoria/210/2009 influenza virus-immunized BALB/c mouse model assessed as increase in influenza specific serum IgG2a titer level at 0.001 to 0.1 ug,IM administered on day 0 and 14 and measured after 28 days by ELISA. The settings on record: dose 0.001-0.1 µg, time 28.0 day. The format is functional, organism-based.

A short description of data set [15]: Toxicity in H3N2-split A/Victoria/210/2009 influenza virus-immunized BALB/c mouse model assessed as abnormality at 0.001 to 0.1 ug,IM administered on day 0 and 14 and measured after 28 days. As to conditions: in vivo, 672 h, dose 0.001-0.1 µg, time 28 day.
The nature of data set [16]: Toxicity in H3N2-split A/Victoria/210/2009 influenza virus-immunized BALB/c mouse model assessed as reactogenicity at 0.001 to 0.1 ug,IM administered on day 0 and 14 and measured after 28 days. As to conditions: in vivo, 672 h, dose 0.001-0.1 µg, time 28 day.
For data set [17], the system named is Mus musculus. Put plainly: Immuno-adjuvant activity in H3N2-A/HK/68 influenza virus-immunized BALB/c mouse model assessed as increase in survival rate at 10 ug,INH administered 48hrs prior to influenza challenge and measured after 18 days. The format is functional. As to conditions: dose 10 µg, time 18 day.
For data set [18], the system named is Mus musculus. Put plainly: Immuno-adjuvant activity in H3N2-A/HK/68 influenza virus-immunized BALB/c mouse model assessed as increase in survival rate at 1 ug,INH administered 48hrs prior to influenza challenge and measured after 18 days. As to conditions: dose 1 µg, time 18 day. Format: functional.
Data set [19] can be described thus: Toxicity in H3N2-A/HK/68 influenza virus-immunized BALB/c mouse model assessed as body weight change at 1 to 10 ug,INH administered 48hrs prior to influenza challenge and measured after 18 days. As to conditions: in vivo, inhaled_or_intranasal, 432 h, dose 1-10 µg, time 18 day.
Data set [20] is described as follows: Toxicity in H3N2-A/HK/68 influenza virus-immunized BALB/c mouse model assessed as disease index at 1 to 10 ug,INH administered 48hrs prior to influenza challenge and measured after 18 days. As to conditions: in vivo, inhaled_or_intranasal, 432 h, dose 1-10 µg, time 18 day.
The nature of data set [21]: Toxicity in H3N2-A/HK/68 influenza virus-immunized BALB/c mouse model assessed as change in body temperature at 1 to 10 ug,INH administered 48hrs prior to influenza challenge and measured after 18 days. As to conditions: in vivo, inhaled_or_intranasal, 432 h, dose 1-10 µg, time 18 day.

T1 sequence (O00206 whole entry): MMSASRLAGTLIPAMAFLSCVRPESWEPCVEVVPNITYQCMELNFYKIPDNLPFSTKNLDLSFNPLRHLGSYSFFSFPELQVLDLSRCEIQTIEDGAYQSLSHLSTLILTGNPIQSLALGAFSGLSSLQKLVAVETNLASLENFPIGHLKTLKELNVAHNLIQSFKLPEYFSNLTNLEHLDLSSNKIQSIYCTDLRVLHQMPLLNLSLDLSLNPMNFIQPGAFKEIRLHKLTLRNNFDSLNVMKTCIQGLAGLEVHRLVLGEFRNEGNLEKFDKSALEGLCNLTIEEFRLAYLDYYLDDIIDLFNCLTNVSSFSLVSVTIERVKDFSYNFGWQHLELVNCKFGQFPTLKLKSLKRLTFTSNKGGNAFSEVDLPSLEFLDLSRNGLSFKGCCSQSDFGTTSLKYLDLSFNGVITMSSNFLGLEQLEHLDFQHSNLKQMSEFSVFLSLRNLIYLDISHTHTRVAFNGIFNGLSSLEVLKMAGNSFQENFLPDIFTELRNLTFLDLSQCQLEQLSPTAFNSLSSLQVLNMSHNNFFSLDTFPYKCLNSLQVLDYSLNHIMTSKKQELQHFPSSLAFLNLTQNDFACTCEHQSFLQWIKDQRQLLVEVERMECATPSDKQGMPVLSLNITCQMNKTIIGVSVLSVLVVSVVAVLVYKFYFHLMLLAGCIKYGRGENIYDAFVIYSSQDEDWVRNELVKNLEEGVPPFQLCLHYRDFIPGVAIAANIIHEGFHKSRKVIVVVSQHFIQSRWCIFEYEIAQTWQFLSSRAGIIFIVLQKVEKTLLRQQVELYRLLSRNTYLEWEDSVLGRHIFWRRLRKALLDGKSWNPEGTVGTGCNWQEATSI

Usually EC50 stands for the midpoint of the concentration-response curve. For the compound `CCCCCCCCCCC[C@H](CC(=O)N[C@H]1[C@H](OC[C@H](NC(=O)C[C@@H](CCCCCCCCCCC)OCCCCCCCCCC)C(=O)O)O[C@H](CO)[C@@H](OP(=O)(O)O)[C@@H]1OC(=O)C[C@@H](CCCCCCCCCCC)OCCCCCCCCCC)OCCCCCCCCCC`, the EC50 in data set [1] stood at 0.93 nM; in data set [2], 0.015 nM; in [4], 0.005 nM; in [5], 0.06 nM; in data set [6], 0.01 nM; in [7], 0.26 nM. Also, the EC50 amounted to 0.028 nM in [8] and 0.014 nM in data set [9]. The Stability entry in [3] is on record as “Stable”. Further, the Activity entry was “Dose-Dependent Effect” in data set [10]; “Dose-Dependent Effect” in data set [11]; “Non-Toxic” in data set [15]; “Non-Toxic” in data set [16]; “Non-Toxic” in data set [19]; “Non-Toxic” in data set [20]. Moreover, the Activity entry in [21] was “Non-Toxic”. Besides, the outcome in [12], in [13] and in data set [14] was Active. Also, the figures for the Survival in data set [17] and in [18] were 100% and 60%, respectively.
